Measurements from PubChem BioAssay (NCI).
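96-well plates; 48 h exposure; 5 concentrations. Endpoints by linear interpolation between flanking doses. Not reached: highest tested concentration assigned. TGI denotes the concentration required for complete inhibition of growth.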

How the values were obtained:
Experiment in all cases: NCI tumour cell line growth inhibition, 48 h
[1] = tested on: 786-0 renal
[2] = tested on: A498 renal
[3] = tested on: A549 NSCLC
[4] = tested on: ACHN renal
[5] = tested on: CAKI-1 renal
[6] = tested on: CCRF-CEM leukemia
[7] = tested on: COLO 205 colon
[8] = tested on: DLD-1 colon
[9] = tested on: DMS 114 small cell lung
[10] = tested on: DMS 273 small cell lung
[11] = tested on: EKVX NSCLC
[12] = tested on: HCC-2998 colon
[13] = tested on: HCT-116 colon
[14] = tested on: HCT-15 colon
[15] = tested on: HL-60(TB) leukemia
[16] = tested on: HOP-62 NSCLC
[17] = tested on: HOP-92 NSCLC
[18] = tested on: HT29 colon
[19] = tested on: IGROV1 ovarian
[20] = tested on: K-562 leukemia
[21] = tested on: KM12 colon
[22] = tested on: KM20L2 colon
[23] = tested on: LOX IMVI melanoma
[24] = tested on: LXFL 529 NSCLC
[25] = tested on: M14 melanoma
[26] = tested on: M19-MEL melanoma
[27] = tested on: MALME-3M melanoma
[28] = tested on: MOLT-4 leukemia
[29] = tested on: NCI-H226 lung
[30] = tested on: NCI-H23 lung
[31] = tested on: NCI-H460 lung
[32] = tested on: NCI-H522 lung
[33] = tested on: OVCAR-3 ovarian
[34] = tested on: OVCAR-4 ovarian
[35] = tested on: OVCAR-5 ovarian
[36] = tested on: OVCAR-8 ovarian
[37] = tested on: RPMI-8226 leukemia
[38] = tested on: RXF 393 renal
[39] = tested on: SF-295 CNS
[40] = tested on: SF-539 CNS
[41] = tested on: SK-MEL-2 melanoma
[42] = tested on: SK-MEL-28 melanoma
[43] = tested on: SK-MEL-5 melanoma
[44] = tested on: SK-OV-3 ovarian
[45] = tested on: SN12C renal
[46] = tested on: SNB-19 CNS
[47] = tested on: SNB-75 CNS
[48] = tested on: SNB-78 CNS
[49] = tested on: SW-620 colon
[50] = tested on: TK-10 renal
[51] = tested on: U251 CNS
[52] = tested on: UACC-257 melanoma
[53] = tested on: UACC-62 melanoma
[54] = tested on: UO-31 renal
[55] = tested on: XF 498 CNS
[56] = tested on: SF-268 CNS
[57] = tested on: SR leukemia

CN(N=O)C(=O)N(N)CCCCC(NC(=O)OCc1ccccc1)C(=O)OCc1ccccc1 (centres undefined)
TGI [1]: 66.5 µM | TGI [2]: > 100 µM | TGI [3]: > 100 µM | TGI [4]: 34.2 µM | TGI [5]: 72.3 µM | TGI [6]: 38.5 µM | TGI [7]: 45.6 µM | TGI [8]: > 100 µM | TGI [9]: > 100 µM | TGI [10]: > 100 µM | TGI [11]: > 100 µM | TGI [12]: 63.4 µM | TGI [13]: > 100 µM | TGI [14]: > 100 µM | TGI [15]: 16.2 µM | TGI [16]: 34.2 µM | TGI [17]: 34.5 µM | TGI [18]: > 100 µM | TGI [19]: > 100 µM | TGI [20]: > 100 µM | TGI [21]: > 100 µM | TGI [22]: > 100 µM | TGI [23]: 45.8 µM | TGI [24]: > 100 µM | TGI [25]: 70.7 µM | TGI [26]: > 100 µM | TGI [27]: 95.5 µM | TGI [28]: 52.6 µM | TGI [29]: 96.2 µM | TGI [30]: 38.8 µM | TGI [31]: > 100 µM | TGI [32]: 24.9 µM | TGI [33]: 57 µM | TGI [34]: > 100 µM | TGI [35]: > 100 µM | TGI [36]: > 100 µM | TGI [37]: > 100 µM | TGI [38]: 51.6 µM | TGI [39]: > 100 µM | TGI [40]: 35.2 µM | TGI [41]: > 100 µM | TGI [42]: > 100 µM | TGI [43]: > 100 µM | TGI [44]: > 100 µM | TGI [45]: 46.3 µM | TGI [46]: > 100 µM | TGI [47]: 62.8 µM | TGI [48]: 85.9 µM | TGI [49]: > 100 µM | TGI [50]: > 100 µM | TGI [51]: > 100 µM | TGI [52]: 51.7 µM | TGI [53]: 44.7 µM | TGI [54]: 33.8 µM | TGI [55]: 32.2 µM

CCOC(=O)c1oc2c(OC)cc(Cl)c3c2c1CCC3
TGI [1]: > 100 µM | TGI [2]: > 100 µM | TGI [3]: > 100 µM | TGI [4]: > 100 µM | TGI [6]: > 100 µM | TGI [7]: > 100 µM | TGI [8]: > 100 µM | TGI [9]: > 100 µM | TGI [10]: > 100 µM | TGI [11]: > 100 µM | TGI [12]: > 100 µM | TGI [13]: > 100 µM | TGI [14]: > 100 µM | TGI [15]: > 100 µM | TGI [17]: 63.8 µM | TGI [18]: > 100 µM | TGI [19]: > 100 µM | TGI [20]: > 100 µM | TGI [21]: > 100 µM | TGI [23]: > 100 µM | TGI [24]: > 100 µM | TGI [25]: > 100 µM | TGI [26]: > 100 µM | TGI [27]: > 100 µM | TGI [28]: > 100 µM | TGI [29]: 73.3 µM | TGI [30]: > 100 µM | TGI [31]: > 100 µM | TGI [32]: > 100 µM | TGI [33]: 28.3 µM | TGI [34]: > 100 µM | TGI [35]: > 100 µM | TGI [36]: > 100 µM | TGI [37]: > 100 µM | TGI [38]: 65.3 µM | TGI [56]: > 100 µM | TGI [39]: > 100 µM | TGI [40]: > 100 µM | TGI [41]: > 100 µM | TGI [42]: > 100 µM | TGI [43]: > 100 µM | TGI [44]: > 100 µM | TGI [45]: > 100 µM | TGI [46]: 97.6 µM | TGI [47]: 76.5 µM | TGI [48]: > 100 µM | TGI [57]: > 100 µM | TGI [49]: > 100 µM | TGI [50]: 79.3 µM | TGI [51]: > 100 µM | TGI [52]: > 100 µM | TGI [53]: > 100 µM | TGI [54]: 65.1 µM | TGI [55]: 80.6 µM
